Holding throughout (assay type): biochemical
Experiment [1] deals with T1, aggrecanase-1 (Homo sapiens, UniProt O75173).
T1 sequence (O75173 213-837): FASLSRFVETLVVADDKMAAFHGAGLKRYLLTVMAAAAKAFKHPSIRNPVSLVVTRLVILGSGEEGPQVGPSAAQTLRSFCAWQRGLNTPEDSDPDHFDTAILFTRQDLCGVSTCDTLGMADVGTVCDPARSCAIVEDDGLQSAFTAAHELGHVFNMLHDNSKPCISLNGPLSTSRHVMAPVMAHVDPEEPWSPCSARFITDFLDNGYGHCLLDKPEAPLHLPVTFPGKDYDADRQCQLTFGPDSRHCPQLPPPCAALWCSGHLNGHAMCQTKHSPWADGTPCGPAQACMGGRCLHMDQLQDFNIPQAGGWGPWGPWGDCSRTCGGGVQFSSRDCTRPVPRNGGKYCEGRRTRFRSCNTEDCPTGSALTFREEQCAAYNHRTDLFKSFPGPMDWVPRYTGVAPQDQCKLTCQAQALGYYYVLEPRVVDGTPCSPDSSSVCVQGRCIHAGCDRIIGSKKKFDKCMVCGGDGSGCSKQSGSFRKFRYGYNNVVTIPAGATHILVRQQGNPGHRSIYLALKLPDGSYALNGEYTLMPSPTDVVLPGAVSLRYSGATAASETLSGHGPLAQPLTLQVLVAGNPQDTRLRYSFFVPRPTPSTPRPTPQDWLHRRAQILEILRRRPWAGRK
In words: Aggrecanase-1 inhibitory action (Particle Assay, GAG release from aggrecan-containing polyacrylamide particles). The note with it: aggrecanase-1 inhibitory action; read-out: IC50 AG1 (Experimental Example 1). In a few lines:
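Enzyme and compound incubated with aggrecan-containing polyacrylamide particles in Tris-HCl buffer at 37° C for 15 h. Released GAG in supernatant measured with 1,9-dimethylmethylene blue at 595 nm against chondroitin sulfate standard; % inhibition from enzyme-free and inhibitor-free wells, reported as TC50 (μM).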

Experiment [2] concerns the target T2, Recombinant Human MMP-13 (Homo sapiens, UniProt P45452).
T2 construct: purchased R&D systems 511-MM
The experiment is described as follows: MMP-13 inhibitory activity (MMP-13 specific fluorescent substrate with quencher). The note with it: Recombinant Human MMP-13, fluorescent substrate, 25° C. for 1 h; read-out: IC50 MMP13 (Experimental Example 3). In a few lines: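 Recombinant human MMP-13 with test compound, reaction started with quenched fluorogenic peptide 7-MCA-Pro-CHA-Gly-NVal-His-Ala-DPA in Tris-HCl buffer, 1 h at 25 °C, stopped with acetic acid. Fluorescence at Ex 325/Em 405 nm; % inhibition versus enzyme-free and inhibitor-free wells, reported as IC50 (μM).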

The target in experiment [3] is T3, MMP-1 (Homo sapiens, UniProt P03956).
T3 sequence (P03956 100-469): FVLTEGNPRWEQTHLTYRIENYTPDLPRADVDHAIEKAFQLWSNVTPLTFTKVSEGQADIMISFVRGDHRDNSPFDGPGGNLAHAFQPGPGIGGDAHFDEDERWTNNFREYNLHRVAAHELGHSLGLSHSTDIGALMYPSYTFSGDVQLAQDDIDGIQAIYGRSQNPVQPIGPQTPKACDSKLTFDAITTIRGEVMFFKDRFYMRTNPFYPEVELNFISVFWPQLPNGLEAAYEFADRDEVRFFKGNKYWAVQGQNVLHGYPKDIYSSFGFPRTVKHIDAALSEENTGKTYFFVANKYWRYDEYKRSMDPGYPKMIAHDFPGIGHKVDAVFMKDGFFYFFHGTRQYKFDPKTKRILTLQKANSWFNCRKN
In words: MMP-1 inhibitory action (Type I collagen Activity Measurement kit, FITC-labeled collagen type I). The note with it: MMP-1 inhibitory action, FITC-labeled collagen type I, 37° C. for 3 hr; read-out: IC50 MMP1 (Experimental Example 2).

Structures are written as SMILES.

Broadly, the IC50 is the concentration needed to halve the response being measured. Regarding `O=C(O)C1(NS(=O)(=O)c2ccc(-c3ccc(Cl)cc3)s2)CC1(CO)c1ccccc1` (stereo not drawn) [Example 2-229], the IC50 in experiment [1] is less than 1000 nM; in experiment [2], less than 1000 nM; in experiment [3], not below 10000 nM.

For the compound `O=C(CCc1ccccc1C1CC1(NS(=O)(=O)c1ccc(-c2cc(C(F)(F)F)on2)s1)C(=O)O)N1CCOCC1` (stereo not drawn) [Example 2-230], the 50% inhibitory concentration (IC50) in experiment [1] is less than 1000 nM; in experiment [2] it was less than 100 nM; in experiment [3], not below 10000 nM.

Turning to `CN(C)C(=O)CCc1ccccc1C1CC1(NS(=O)(=O)c1ccc(-c2cc(C(F)(F)F)on2)s1)C(=O)O` (stereo not drawn) [Example 2-231], the results for the IC50 in experiment [1], in experiment [2] and in experiment [3] were less than 1000 nM, less than 100 nM and not below 1000 nM, respectively.

As for `CN1CCN(C(=O)CCc2ccccc2C2CC2(NS(=O)(=O)c2ccc(-c3cc(C(F)(F)F)on3)s2)C(=O)O)CC1` (stereo not drawn) [Example 2-232], the IC50 was less than 1000 nM in experiment [1], less than 100 nM in experiment [2] and not below 1000 nM in experiment [3].

As to `O=C(Cc1cccc(C2CC2(NS(=O)(=O)c2ccc(-c3cc(C(F)(F)F)on3)s2)C(=O)O)c1)N[C@H]1CC[C@H](O)CC1` (stereo partly drawn) [Example 2-233], the IC50 in experiment [1] was less than 1000 nM; in experiment [2], less than 100 nM; in experiment [3], not below 1000 nM.

On to `O=C(CCc1cccc(C2CC2(NS(=O)(=O)c2ccc(-c3cc(C(F)(F)F)on3)s2)C(=O)O)c1)N1CCOCC1` (stereo not drawn) [Example 2-234], for which the IC50 in experiment [1] was less than 100 nM; in experiment [2], less than 100 nM; in experiment [3], not below 1000 nM.

Consider `CN1CCN(C(=O)CCc2cccc(C3CC3(NS(=O)(=O)c3ccc(-c4cc(C(F)(F)F)on4)s3)C(=O)O)c2)CC1` (stereo not drawn) [Example 2-235], for which the IC50 in experiment [1] is less than 1000 nM; in experiment [2], less than 100 nM; in experiment [3] it was not below 1000 nM.

As to `O=C(O)C1(NS(=O)(=O)c2ccc(-c3cc(C(F)(F)F)on3)s2)CC1c1cccc(CCCO)c1` (stereo not drawn) [Example 2-236], the IC50 in experiment [1] was less than 1000 nM; in experiment [2] it was less than 100 nM; in experiment [3] it was not below 1000 nM.

As for `CC1C(c2ccccc2)C1(NS(=O)(=O)c1ccc(-c2ccc(Cl)cc2)s1)C(=O)O` (stereo not drawn) [Example 2-237], the 50% inhibitory concentration (IC50) was less than 100 nM in experiment [1], less than 100 nM in experiment [2] and not below 1000 nM in experiment [3].

Regarding `CN1CCN(C(=O)OCCCc2cccc(C3CC3(NS(=O)(=O)c3ccc(-c4cc(C(F)(F)F)on4)s3)C(=O)O)c2)CC1` (stereo not drawn) [Example 2-238], the IC50 in experiment [1] was less than 1000 nM; in experiment [2], less than 100 nM; in experiment [3], not below 1000 nM.

`O=C(OCCCc1cccc(C2CC2(NS(=O)(=O)c2ccc(-c3cc(C(F)(F)F)on3)s2)C(=O)O)c1)N1CCOCC1` (stereo not drawn) [Example 2-239]: the IC50 was less than 100 nM in experiment [1], less than 100 nM in experiment [2] and not below 1000 nM in experiment [3].

Turning to `O=C(O)C1(NS(=O)(=O)c2ccc(-c3cc(C(F)(F)F)on3)s2)CC1c1ccccc1CCO` (stereo not drawn) [Example 2-240], the IC50 is less than 1000 nM in experiment [1], less than 1000 nM in experiment [2] and not below 1000 nM in experiment [3].

`Cc1cnn(-c2ccc(S(=O)(=O)N[C@@]3(C(=O)O)C[C@@H]3c3ccccc3)s2)c1` [Example 2-241]: the IC50 in experiment [1] was less than 1000 nM; in experiment [2] it was less than 100 nM; in experiment [3], not below 1000 nM.

For the compound `O=C(OCCc1ccccc1C1CC1(NS(=O)(=O)c1ccc(-c2cc(C(F)(F)F)on2)s1)C(=O)O)N1CCOCC1` (stereo not drawn) [Example 2-242], the IC50 in experiment [1] was less than 100 nM; in experiment [2] it was less than 100 nM; in experiment [3], not below 1000 nM.

Take `O=C(Cc1ccccc1C1CC1(NS(=O)(=O)c1ccc(-c2cc(C(F)(F)F)on2)s1)C(=O)O)N1CCOCC1` (stereo not drawn) [Example 2-243]: the IC50 in experiment [1] is less than 1000 nM; in experiment [2], less than 100 nM; in experiment [3], not below 1000 nM.

Regarding `O=C(O)[C@@]1(NS(=O)(=O)c2ccc3c(c2)Cc2cc(F)ccc2-3)C[C@H]1c1ccccc1` [Example 2-244], the 50% inhibitory concentration (IC50) is less than 1000 nM in experiment [1], less than 1000 nM in experiment [2] and not below 10000 nM in experiment [3].

For `O=C(O)C1(NS(=O)(=O)c2ccc(-c3ccc(Cl)cc3)s2)CC1c1ccc(N2CCOCC2)cc1` (stereo not drawn) [Example 2-245], the IC50 is not below 1000 nM in experiment [1], less than 1000 nM in experiment [2] and not below 10000 nM in experiment [3].

Regarding `CN1CCN(c2ccc(C3CC3(NS(=O)(=O)c3ccc(-c4ccc(Cl)cc4)s3)C(=O)O)cc2)CC1` (stereo not drawn) [Example 2-246], the concentration for half-maximal inhibition (IC50) in experiment [1] is not below 1000 nM; in experiment [2], less than 1000 nM; in experiment [3], not below 10000 nM.

With `CN1CCN(c2ccc(C3CC3(NS(=O)(=O)c3ccc(-c4ccc(Cl)cc4)s3)C(=O)O)cc2)CC1` (stereo not drawn) [Example 2-247], the IC50 in experiment [1], in experiment [2] and in experiment [3] was not below 10000 nM throughout.

Consider `O=C(O)C1(NS(=O)(=O)c2ccc(-c3cc(C(F)(F)F)on3)s2)CC1(CCCO)c1ccccc1` (stereo not drawn) [Example 2-248], for which the values for the IC50 in experiment [1], in experiment [2] and in experiment [3] were less than 100 nM, less than 1000 nM and not below 1000 nM, respectively.

On to `O=C(O)C1(NS(=O)(=O)c2ccc(-c3ccc(Cl)cc3)s2)CC1(CCCN1CCOCC1)c1ccccc1` (stereo not drawn) [Example 2-249], for which the IC50 in experiment [1] was less than 100 nM; in experiment [2], less than 1000 nM; in experiment [3], not below 10000 nM.

As to `O=C(Nc1cccc(C2CC2(NS(=O)(=O)c2ccc(-c3cc(C(F)(F)F)on3)s2)C(=O)O)c1)N1CCOCC1` (stereo not drawn) [Example 2-250], the concentration for half-maximal inhibition (IC50) was less than 1000 nM in experiment [1], less than 100 nM in experiment [2] and not below 1000 nM in experiment [3].

With `O=C(Nc1cccc(C2CC2(NS(=O)(=O)c2ccc(-c3ccc(Cl)cc3)s2)C(=O)O)c1)N1CCOCC1` (stereo not drawn) [Example 2-251], the values for the half-inhibitory concentration (IC50) in experiment [1], in experiment [2] and in experiment [3] were less than 1000 nM, less than 1000 nM and not below 10000 nM, respectively.

As to `O=C(O)C1(NS(=O)(=O)c2ccc(-c3cc(C(F)(F)F)on3)s2)CC1c1ccccc1CCCO` (stereo not drawn) [Example 2-252], the half-inhibitory concentration (IC50) in experiment [1] was less than 100 nM; in experiment [2] it was less than 1000 nM; in experiment [3] it was not below 1000 nM.

In the case of `O=C(OCCCc1ccccc1C1CC1(NS(=O)(=O)c1ccc(-c2cc(C(F)(F)F)on2)s1)C(=O)O)N1CCOCC1` (stereo not drawn) [Example 2-253], the figures for the IC50 in experiment [1], in experiment [2] and in experiment [3] were less than 100 nM, less than 100 nM and not below 1000 nM, respectively.

As for `O=C(OCCCc1ccccc1C1CC1(NS(=O)(=O)c1ccc(-c2cc(C(F)(F)F)on2)s1)C(=O)O)N1CCC[C@H]1CO` (stereo partly drawn) [Example 2-254], the half-maximal inhibitory concentration (IC50) is less than 100 nM in experiment [1], less than 100 nM in experiment [2] and not below 1000 nM in experiment [3].

For `O=C(OCCCc1ccccc1C1CC1(NS(=O)(=O)c1ccc(-c2cc(C(F)(F)F)on2)s1)C(=O)O)N1CC[C@@H](O)C1` (stereo partly drawn) [Example 2-255], the half-maximal inhibitory concentration (IC50) in experiment [1] was less than 100 nM; in experiment [2], less than 100 nM; in experiment [3], not below 1000 nM.

`CC1CCN(c2ccc(S(=O)(=O)N[C@@]3(C(=O)O)C[C@@H]3c3ccccc3)s2)CC1` [Example 2-256]: the IC50 in experiment [1] was not below 1000 nM; in experiment [2], not below 10000 nM; in experiment [3], not below 10000 nM.

On to `O=C(O)C1(NS(=O)(=O)c2ccc(-c3cc(C(F)(F)F)on3)s2)CC1c1cccc(N2CCOCC2)c1` (stereo not drawn) [Example 2-257], for which the IC50 in experiment [1] is less than 100 nM; in experiment [2], less than 1000 nM; in experiment [3], not below 1000 nM.

Turning to `O=C(c1cccc(C2CC2(NS(=O)(=O)c2ccc(-c3cc(C(F)(F)F)on3)s2)C(=O)O)c1)N1CCOCC1` (stereo not drawn) [Example 2-258], the IC50 in experiment [1] was less than 1000 nM; in experiment [2], less than 1000 nM; in experiment [3] it was not below 1000 nM.

Turning to `O=C(NCCc1cccc(C2CC2(NS(=O)(=O)c2ccc(-c3cc(C(F)(F)F)on3)s2)C(=O)O)c1)N1CCOCC1` (stereo not drawn) [Example 2-259], the IC50 in experiment [1] was less than 100 nM; in experiment [2], less than 100 nM; in experiment [3], not below 1000 nM.

Consider `O=C(CN1CCOCC1)Nc1cccc(C2CC2(NS(=O)(=O)c2ccc(-c3cc(C(F)(F)F)on3)s2)C(=O)O)c1` (stereo not drawn) [Example 2-260], for which the IC50 in experiment [1] was less than 1000 nM; in experiment [2], less than 100 nM; in experiment [3], not below 1000 nM.
